From patent US7132278B2, “PAS kinase” (Board of Regents, The University of Texas System, priority 2001, dated 2006)

Target: PASK (Homo sapiens, UniProt Q96RG2, F1266C/Y899H)
Settings: read-out: Km for PASK; ATP as co-substrate
Description: One HTS assay kinase assay we employ is a robust and simple, non-radioactive chemiluminescent assay that measures the ability of the human enzyme to phosphorylate a biotinylated derivative of the AMARA peptide. The enzyme is expressed in baculovirus and purified by affinity and ion-exchange chromatography under routine conditions. Assay buffer is composed of 20 mM Tris-HC1, pH 7.5, 10 mM MgC12, 2 mM EGTA, 0.1% NP-40, 0.5 mM benzamidine, 1 mM NaF and 10 mM DTT. Enzyme is added to this buffer at a concentration determined to be in the linear range of activity (10 ng per microtiter plate well). For the most robust and sensitive kinase assay, we use an ATP concentration matching the Kmfor PASK (2.5 mM). After dispensing 80 ul of the enzyme/buffer mix per well in Costar 96-well microtiter plates (coated with Neutravidin at 0.5 mg/ml at room temperature for 2 hr), 10 μl of test compounds is added at a final concentration of 1 μM compound. Compounds are diluted in DMSO from master plates stored in DMSO at 10 mM. Following compound addition, the reactions are initiated by addition of 10 μl of biotinylated AMARA peptide and ATP such that the final concentration of substrate and ATP are 1 mM and 2.5 mM respectively. […] Reactions are developed by addition of 100 μl of Super Signal substrate (Pierce) and read colorimetrically using a Wallac Victor2, 1420 Multilabel Counter.

Chain of PASK (Q96RG2 whole entry Y899H/F1266C): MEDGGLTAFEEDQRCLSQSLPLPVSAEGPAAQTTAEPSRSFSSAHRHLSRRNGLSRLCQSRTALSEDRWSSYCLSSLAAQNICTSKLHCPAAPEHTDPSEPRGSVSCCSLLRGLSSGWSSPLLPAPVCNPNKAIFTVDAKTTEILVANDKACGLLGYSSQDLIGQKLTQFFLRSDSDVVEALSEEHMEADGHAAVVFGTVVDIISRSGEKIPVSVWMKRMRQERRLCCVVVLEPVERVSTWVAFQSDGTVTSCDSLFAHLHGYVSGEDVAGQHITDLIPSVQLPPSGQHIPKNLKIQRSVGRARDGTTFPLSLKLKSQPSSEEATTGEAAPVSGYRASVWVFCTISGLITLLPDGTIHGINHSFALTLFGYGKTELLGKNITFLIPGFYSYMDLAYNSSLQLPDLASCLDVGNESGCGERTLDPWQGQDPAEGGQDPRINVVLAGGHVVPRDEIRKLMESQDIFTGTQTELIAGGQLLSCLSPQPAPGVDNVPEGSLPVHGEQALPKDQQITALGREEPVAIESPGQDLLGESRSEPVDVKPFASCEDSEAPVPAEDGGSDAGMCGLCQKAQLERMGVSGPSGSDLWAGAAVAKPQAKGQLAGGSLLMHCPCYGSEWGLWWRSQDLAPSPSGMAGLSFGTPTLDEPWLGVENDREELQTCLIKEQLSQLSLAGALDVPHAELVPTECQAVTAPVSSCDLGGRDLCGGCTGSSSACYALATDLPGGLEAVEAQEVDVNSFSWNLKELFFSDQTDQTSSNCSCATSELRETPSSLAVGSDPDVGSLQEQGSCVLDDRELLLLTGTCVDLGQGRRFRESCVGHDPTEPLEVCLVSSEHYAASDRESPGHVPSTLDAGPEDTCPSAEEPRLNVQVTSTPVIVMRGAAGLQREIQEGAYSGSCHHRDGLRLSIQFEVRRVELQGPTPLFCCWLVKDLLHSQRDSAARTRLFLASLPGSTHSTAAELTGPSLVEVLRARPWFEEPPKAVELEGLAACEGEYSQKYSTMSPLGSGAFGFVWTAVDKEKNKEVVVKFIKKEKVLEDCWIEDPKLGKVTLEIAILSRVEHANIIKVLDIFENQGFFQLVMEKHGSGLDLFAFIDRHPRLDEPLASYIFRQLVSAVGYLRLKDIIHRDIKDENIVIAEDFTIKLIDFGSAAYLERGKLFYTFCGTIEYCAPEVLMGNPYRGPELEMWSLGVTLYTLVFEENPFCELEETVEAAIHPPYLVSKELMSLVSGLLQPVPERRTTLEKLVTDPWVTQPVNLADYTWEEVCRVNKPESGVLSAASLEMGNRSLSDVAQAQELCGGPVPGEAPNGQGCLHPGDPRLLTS

SMILES: Nc1ncnc2c1ncn2[C@@H]1O[C@H](COP(=O)(O)OP(=O)(O)OP(=O)(O)O)[C@@H](O)[C@H]1O [ATP]
- Km: 2500 µM
